In brackets after ≈: the same amount, converted by molar mass. Where a SMILES comes first, the peptide text is derived from it. [ ]: non-standard residue; d: D form. The star is where a group is joined. Orn(α-tetramethylguanidino) = CN(C)C(=N[C@@H](CCCN)C(=O)*)N(C)C; Orn = NCCC[C@H](N)C(=O)O
Assays:
P. aeruginosa DSM 1117 = assay: Transmission electron microscopy, morphological changes; format: cell-based, Pseudomonas aeruginosa; conditions: 1 h
Experimental: Peptide-bacteria mixtures were fixed (2% glutaraldehyde, 5 mmol/L CaCl2, 10 mmol/L MgCl2 in 0.1 mol/L sodium cacodylate buffer, pH 7.4) overnight at 4°C. […] Samples were rinsed with distilled water (5 × 10 min), incubated with aqueous uranylacetate (0.5% w/v) for 1 h at 4°C, washed with distilled water (3 × 10 min), and embedded in Epon. The hardened blocks were sectioned (50 nm) on a UCT ultramicrotome (Leica, Vienna, Austria), stained with uranyl acetate and lead citrate on an AC20 system (Leica), and visualized at a Tecnai 12 electron microscope (FEI, Eindhoven, The Netherlands) at 80 kV. Morphological effects were quantified on average for 25 cells per condition.

[1] = test system: P. aeruginosa DSM 1117 (ATCC 27853); format: cell-based, Pseudomonas aeruginosa; conditions: DSM 1117, 24 h
Experimental: MICs of P. aeruginosa strains DSM 1117 (ATCC 27853), DSM 3227 (ATCC 19429), and DSM 9644 were determined in a microdilution broth assay using 50 or 100% MHB (11.5 and 23 g/L MHB, respectively) whereas MICs of E. coli DSM 1103 (ATCC 25922) and K. pneumoniae DSM 681 (ATCC 10031) were determined in TSB (30 g/L TSB). Peptides (1 g/L in water) were serially two-fold diluted in a 96-well microtiter plate (PS, sterile, flat bottom) in 50 μL of the corresponding medium to final concentrations of 512–4 μg/mL. Bacteria were grown in nutrient broth overnight and diluted to a cell concentration of 1.5 × 10^7 cells/mL in the corresponding medium. Cell densities were determined by using the McFarland standard as reference. An aliquot (50 μL) of the cell culture was added to each well and incubated (37°C, 24 h). The OD595 was determined in a SpectraMax 340PC (Molecular Devices, Sunnyvale, USA). Additionally, MIC values were also determined for high bacteria densities (5 × 10^8 cells/mL) corresponding to the conditions used for TEM, as described above.

[2] = test system: E. coli DSM 1103 (ATCC 25922); format: cell-based, Escherichia coli; conditions: DSM 1103, 24 h
P. aeruginosa elastase = molecular target: T1, P. aeruginosa elastase (Pseudomonas aeruginosa, UniProt P14756); assay: Elastase assay (proteolytic stability); format: in vitro ADME; conditions: after 30 min and all later time points, elastase 12 units/mL, pH 8.3, 37°C
T1 construct: purchased Merck (Darmstadt, Germany)
Experimental: A stock solution of P. aeruginosa elastase (0.26 U/μL) was prepared in Tris-HCl (5 mmol/L, pH 8.3) and stored at −80°C. Peptides (0.5 g/L in 5 mmol/L Tris-HCl, pH 8.3) were incubated with elastase (0.012 U/μL) at 37°C under constant shaking (450 rpm) for 0, 0.5, 2, 4, and 6 h. Aliquots (10.5 μL) were precipitated with a mixture of acetonitrile and ethanol (1:1 v/v) containing 0.1% TFA (21 μL), centrifuged, the supernatant transferred into a new tube, and dried in vacuum. Samples were dissolved in aqueous acetonitrile (3% v/v) containing TFA (0.1% v/v) and analyzed by RP-HPLC using the conditions described above.

[3] = test system: K. pneumoniae DSM 681 (ATCC 10031); format: cell-based, Klebsiella pneumoniae; conditions: DSM 681, 24 h
Summary of the method: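 Broth microdilution MIC: P. aeruginosa strains in 50 or 100% MHB, K. pneumoniae in TSB; peptides 512–4 μg/mL final. Inoculum from 1.5 × 10^7 cells/mL suspension, also high density 5 × 10^8 cells/mL; 37°C, 24 h, growth read at OD595.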

T1 sequence (P14756 198-498): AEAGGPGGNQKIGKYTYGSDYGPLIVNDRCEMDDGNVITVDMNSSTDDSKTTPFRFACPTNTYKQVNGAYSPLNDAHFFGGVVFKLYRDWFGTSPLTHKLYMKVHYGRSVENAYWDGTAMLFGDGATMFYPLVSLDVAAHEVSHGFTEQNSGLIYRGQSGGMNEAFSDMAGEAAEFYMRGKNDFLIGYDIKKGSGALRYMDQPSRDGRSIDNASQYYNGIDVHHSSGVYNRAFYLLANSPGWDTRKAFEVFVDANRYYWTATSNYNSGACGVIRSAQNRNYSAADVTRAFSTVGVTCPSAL

CC[C@H](C)[C@H](NC(=O)[C@H](CCCN)N=C(N(C)C)N(C)C)C(=O)N[C@@H](CCCN)C(=O)N[C@H](C(=O)N[C@@H](CCCN)C(=O)N[C@@H](CCCNC(=N)N)C(=O)N1CCC[C@H]1C(=O)N[C@H](C(=O)N[C@@H](Cc1ccc(O)cc1)C(=O)N[C@@H](CCCN)C(=O)N1CCC[C@H]1C(=O)N[C@@H](CCCNC(=N)N)C(=O)N1CCC[C@H]1C(=O)N[C@@H](CCCNC(=N)N)C(=O)N1CCC[C@H]1C(=O)N1CCC[C@H]1C(=O)N[C@@H](Cc1c[nH]cn1)C(=O)N1CCC[C@H]1C(=O)N[C@@H](CCCNC(=N)N)C(=O)N[C@@H](CC(C)C)C(=O)O)C(C)C)[C@@H](C)CC [Api795, gu-O(IO)2RPVYOPRPRPPHPRL-OH] ({Orn(α-tetramethylguanidino)}-I[Orn]I[Orn]RPVY[Orn]PRPRPPHPRL-OH)
Cells spongy (P. aeruginosa DSM 1117; 4 µg/mL): 0% | DNA/ribosomes relocalization: +++, extremely relocalized (P. aeruginosa DSM 1117; 4 µg/mL): 0% | DNA/ribosomes relocalization: ++, relocalized (P. aeruginosa DSM 1117; 4 µg/mL): 23% | DNA/ribosomes relocalization: +, starting (P. aeruginosa DSM 1117; 4 µg/mL): 37% | DNA/ribosomes relocalization: -, no (P. aeruginosa DSM 1117; 4 µg/mL): 40% | Membrane: b, broken (P. aeruginosa DSM 1117; 4 µg/mL): 0% | Membrane: i, intact (P. aeruginosa DSM 1117; 4 µg/mL): 100% | Membrane: r, ruptured (P. aeruginosa DSM 1117; 4 µg/mL): 0% | Ribosome clustering: +++, extremely clustered (P. aeruginosa DSM 1117; 4 µg/mL): 0% | Ribosome clustering: ++, clustered (P. aeruginosa DSM 1117; 4 µg/mL): 0% | Ribosome clustering: +, starting (P. aeruginosa DSM 1117; 4 µg/mL): 70% | Ribosome clustering: -, no (P. aeruginosa DSM 1117; 4 µg/mL): 30% | Vesicle release (P. aeruginosa DSM 1117; 4 µg/mL): 67% | dissociated Fragments: ++, long and thin (P. aeruginosa DSM 1117; 4 µg/mL): 3% | dissociated Fragments: +, small and thin (P. aeruginosa DSM 1117; 4 µg/mL): 3% | dissociated Fragments: -, no (P. aeruginosa DSM 1117; 4 µg/mL): 93% | dissociated Fragments: LV, large vesicles (P. aeruginosa DSM 1117; 4 µg/mL): 0% | Cells spongy (P. aeruginosa DSM 1117; 16 µg/mL): 0% | DNA/ribosomes relocalization: +++, extremely relocalized (P. aeruginosa DSM 1117; 16 µg/mL): 0% | DNA/ribosomes relocalization: ++, relocalized (P. aeruginosa DSM 1117; 16 µg/mL): 10% | DNA/ribosomes relocalization: +, starting (P. aeruginosa DSM 1117; 16 µg/mL): 40% | DNA/ribosomes relocalization: -, no (P. aeruginosa DSM 1117; 16 µg/mL): 50% | Membrane: b, broken (P. aeruginosa DSM 1117; 16 µg/mL): 0% | Membrane: i, intact (P. aeruginosa DSM 1117; 16 µg/mL): 100% | Membrane: r, ruptured (P. aeruginosa DSM 1117; 16 µg/mL): 0% | Ribosome clustering: +++, extremely clustered (P. aeruginosa DSM 1117; 16 µg/mL): 0% | Ribosome clustering: ++, clustered (P. aeruginosa DSM 1117; 16 µg/mL): 0% | Ribosome clustering: +, starting (P. aeruginosa DSM 1117; 16 µg/mL): 30% | Ribosome clustering: -, no (P. aeruginosa DSM 1117; 16 µg/mL): 70% | dissociated Fragments: ++, long and thin (P. aeruginosa DSM 1117; 16 µg/mL): 0% | dissociated Fragments: +, small and thin (P. aeruginosa DSM 1117; 16 µg/mL): 0% | dissociated Fragments: -, no (P. aeruginosa DSM 1117; 16 µg/mL): 100% | dissociated Fragments: LV, large vesicles (P. aeruginosa DSM 1117; 16 µg/mL): 0% | Cells spongy (P. aeruginosa DSM 1117; 64 µg/mL): 0% | DNA/ribosomes relocalization: ++, relocalized (P. aeruginosa DSM 1117; 64 µg/mL): 67% | DNA/ribosomes relocalization: +, starting (P. aeruginosa DSM 1117; 64 µg/mL): 10% | DNA/ribosomes relocalization: -, no (P. aeruginosa DSM 1117; 64 µg/mL): 10% | Membrane: b, broken (P. aeruginosa DSM 1117; 64 µg/mL): 10% | Membrane: i, intact (P. aeruginosa DSM 1117; 64 µg/mL): 90% | Membrane: r, ruptured (P. aeruginosa DSM 1117; 64 µg/mL): 3% | Ribosome clustering: +++, extremely clustered (P. aeruginosa DSM 1117; 64 µg/mL): 7% | Ribosome clustering: ++, clustered (P. aeruginosa DSM 1117; 64 µg/mL): 7% | Ribosome clustering: +, starting (P. aeruginosa DSM 1117; 64 µg/mL): 77% | Ribosome clustering: -, no (P. aeruginosa DSM 1117; 64 µg/mL): 10% | Vesicle release (P. aeruginosa DSM 1117; 64 µg/mL): 50% | dissociated Fragments: ++, long and thin (P. aeruginosa DSM 1117; 64 µg/mL): 3% | dissociated Fragments: +, small and thin (P. aeruginosa DSM 1117; 64 µg/mL): 0% | dissociated Fragments: -, no (P. aeruginosa DSM 1117; 64 µg/mL): 97% | dissociated Fragments: LV, large vesicles (P. aeruginosa DSM 1117; 64 µg/mL): 0% | Cells spongy (P. aeruginosa DSM 1117; 512 µg/mL): 10% | DNA/ribosomes relocalization: +++, extremely relocalized (P. aeruginosa DSM 1117; 512 µg/mL): 100% | DNA/ribosomes relocalization: ++, relocalized (P. aeruginosa DSM 1117; 512 µg/mL): 0% | DNA/ribosomes relocalization: +, starting (P. aeruginosa DSM 1117; 512 µg/mL): 0% | DNA/ribosomes relocalization: -, no (P. aeruginosa DSM 1117; 512 µg/mL): 0% | Membrane: b, broken (P. aeruginosa DSM 1117; 512 µg/mL): 80% | Membrane: i, intact (P. aeruginosa DSM 1117; 512 µg/mL): 20% | Membrane: r, ruptured (P. aeruginosa DSM 1117; 512 µg/mL): 63% | Ribosome clustering: +++, extremely clustered (P. aeruginosa DSM 1117; 512 µg/mL): 93% | Ribosome clustering: ++, clustered (P. aeruginosa DSM 1117; 512 µg/mL): 7% | Ribosome clustering: +, starting (P. aeruginosa DSM 1117; 512 µg/mL): 0% | Ribosome clustering: -, no (P. aeruginosa DSM 1117; 512 µg/mL): 0% | Vesicle release (P. aeruginosa DSM 1117; 512 µg/mL): 7% | dissociated Fragments: +, small and thin (P. aeruginosa DSM 1117; 512 µg/mL): 0% | dissociated Fragments: -, no (P. aeruginosa DSM 1117; 512 µg/mL): 87% | dissociated Fragments: LV, large vesicles (P. aeruginosa DSM 1117; 512 µg/mL): 0% | membranes ruptured, % of the cells (P. aeruginosa DSM 1117; 512 µg/mL): 80% | membranes ruptured, % of the cells (P. aeruginosa DSM 1117; 4 × MIC): 10% | MIC P. aeruginosa DSM 1117, high inoculum [1]: 16 µg/mL (≈ 6.35 µM) | MIC E. coli ATCC 25922 [2]: 8 µg/mL (≈ 3.18 µM) | MIC E. coli DSM 1103, high inoculum [2]: 32 µg/mL (≈ 12.7 µM) | Peptide detected with elastase (P. aeruginosa elastase): 92 ± 4% | MIC K. pneumoniae DSM 681 [3]: 8 µg/mL (≈ 3.18 µM)

— paper PMC4861708 (Frontiers in Cell and Developmental Biology, 2016)
